Like-named read-outs stand apart in the source and are kept apart here.
Target: T1, Human Polymorphonuclear Leukocyte Elastase (Homo sapiens, UniProt P08246)
T1 construct: Crude extract of human polymorphonuclear leukocytes (PMN) containing elastase activity; endogenous in cells; host or cells: human polymorphonuclear leukocytes (crude extract)
T1 sequence (P08246 30-247 limits assumed): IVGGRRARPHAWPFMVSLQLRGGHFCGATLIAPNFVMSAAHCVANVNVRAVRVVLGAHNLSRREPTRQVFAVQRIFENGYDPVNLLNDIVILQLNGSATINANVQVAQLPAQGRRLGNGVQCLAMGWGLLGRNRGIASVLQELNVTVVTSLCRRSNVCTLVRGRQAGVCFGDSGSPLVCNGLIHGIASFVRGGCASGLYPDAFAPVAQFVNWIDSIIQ
Assay: Inhibition of human polymorphonuclear leukocyte (granulocyte) elastase via hydrolysis of Boc-AAPAN
Type: biochemical
Description: Enzyme assay for the Inhibition of Human Polymorphonuclear Leukocyte Elastase Via Hydrolysis of N-t-Boc-alanyl-alanyl-prolylalanine-p-nitroanilide
0.05M TES (N-tris[hydroxymethyl]methyl-2-amino-ethanesulfonic acid) buffer, pH 7.5.
0.2 mM N-t-Boc-alanyl-alanyl-prolyl-alanine-p-nitroanilide (Boc-AAPAN).
To prepare substrate, the solid (m.w. 550) was first dissolved in 10.0 ml DMSO. Buffer at pH 7.5 was then added to a final volume of 100 ml.
Crude extract of human polymorphonuclear leukocytes (PMN) containing elastase activity.
Inhibitors (cephalosporin sulfoxide esters) to be tested dissolved in DMSO just before use.
To 1.0 ml of 0.2 mM Boc-AAPAN in a cuvette, 0.01-0.1 ml of DMSO with or without inhibitor was added. After mixing, a measurement was taken at 410 mμ to detect any spontaneous hydrolysis due to of test compound. 0.05 Milliliters of PMN extract was then added and the αOD/minute at 410 mμ was measured and recorded. Beckman model 35 spectrophotometer was used.
The elastase activity in the crude PMN extract may vary from one preparation to another. A control of each new batch is run, and the volume added in the assay procedure is adjusted according to activity.

[1] = crude human PMN extract, 0.2 mM Boc-AAPAN, pH 7.5, 410 mμ, 2 minutes after zero time, read-out: IC50 (dosage for 50% inhibition of the enzyme activity) (converted)

SMILES: CC(=O)O[C@H]1C(=O)N2[C@@H]1[S+]([O-])C(C)(C)[C@@H]2C(=O)OCc1ccccc1 (stereo partly shown) [CH3 COO / 1 / OBZ]
- IC50 [1]: 13.7 µM

SMILES: CC(=O)O[C@H]1C(=O)N2[C@@H](C(=O)OCc3ccccc3)C(C)(C)S(=O)(=O)[C@H]12 [CH3 COO / 2 / OBZ, Benzyl 6α-acetoxypenicillanate-1,1-dioxide]
- IC50: 0.524 µM

SMILES: CC(OC(=O)OCc1ccc([N+](=O)[O-])cc1)[C@H]1C(=O)N2[C@@H](C(=O)OCc3ccccc3)C(C)(C)S(=O)(=O)[C@H]12 (stereo partly shown) [drawing 27 / 2 / OBZ]
- IC50 [1]: 0.366 µM

SMILES: CC(OC(=O)NCc1ccccc1)[C@H]1C(=O)N2[C@@H](C(=O)OCc3ccccc3)C(C)(C)S(=O)(=O)[C@H]12 (stereo partly shown) [drawing 28 / 2 / OBZ]
- IC50: 1.2 µM

SMILES: C[C@@H](OC(=O)OCc1ccccc1)[C@H]1C(=O)N2[C@@H](C(=O)OCc3ccccc3)C(C)(C)S(=O)(=O)[C@H]12 [drawing 29 / 2 / OBZ]
- IC50 [1]: 0.0997 µM

SMILES: CC(OC(=O)N(Cc1ccccc1)C(=O)NCc1ccccc1)[C@H]1C(=O)N2[C@@H](C(=O)OCc3ccccc3)C(C)(C)S(=O)(=O)[C@H]12 (stereo partly shown) [drawing 30 / 2 / OBZ]
- IC50 [1]: 0.0789 µM

SMILES: Cc1ccc(S(=O)(=O)OC2C(=O)N3[C@@H]2[S+]([O-])C(C)(C)[C@@H]3C(=O)OCc2ccccc2)cc1 (stereo partly shown) [p-CH3 C6 H4 SO2 O(TsO) / 1 / OBZ]
- IC50 [1]: 4.19 µM

SMILES: Cc1ccc(S(=O)(=O)OC2C(=O)N3[C@@H](C(=O)OCc4ccccc4)C(C)(C)S(=O)(=O)[C@H]23)cc1 (stereo partly shown) [p-CH3 C6 H4 SO2 O(TsO) / 2 / OBZ]
- IC50: 0.101 µM

SMILES: CO[C@]1(NC(=O)C(F)(F)F)C(=O)N2[C@@H](C(=O)OCc3ccccc3)C(C)(C)S(=O)(=O)[C@@H]21 [α-CF3 CONH / β-CH3 O / 2 / OBZ]
- IC50 [1]: 1.72 µM

SMILES: CO[C@H]1C(=O)N2[C@@H]1SC(C)(COC(C)=O)[C@@H]2C(=O)OCc1ccccc1 (stereo partly drawn) [α-CH3 O / 0 / OBZ]
- IC50 [1]: 13.2 µM

SMILES: CO[C@H]1C(=O)N2[C@@H]1[S+]([O-])C(C)(COC(C)=O)[C@@H]2C(=O)OCc1ccccc1 (stereo partly drawn) [α-CH3 O / 1 / OBZ]
- IC50 [1]: 10.1 µM

SMILES: CO[C@H]1C(=O)N2[C@@H](C(=O)OCc3ccccc3)C(C)(COC(C)=O)S(=O)(=O)[C@H]12 (stereo partly drawn) [α-CH3 O / 2 / OBZ]
- IC50 [1]: 9.72 to 14.6 µM

SMILES: CCC1(N(C)C(=O)C(F)(F)F)C(=O)N2C1[S+]([O-])C(C)(C)C2C(=O)OCc1ccccc1 (stereo not drawn) [β-CF3 CON(CH3) / α-C2 H5 / 1 / OBZ]
- IC50 [1]: 43.4 µM

SMILES: CC[C@@]1(NC(=O)C(F)(F)F)C(=O)N2[C@@H](C(=O)OCc3ccccc3)C(C)(C)[S+]([O-])[C@@H]21 (stereo partly drawn) [β-CF3 CONH / α-C2 H5 / 1 / OBZ]
- IC50 [1]: 11.2 µM

SMILES: CC[C@@]1(NC(=O)C(F)(F)F)C(=O)N2[C@@H](C(=O)OCc3ccccc3)C(C)(C)S(=O)(=O)[C@@H]21 [β-CF3 CONH / α-C2 H5 / 2 / OBZ, benzyl 6α-ethyl-6β-trifluoroacetamidopenicillanate-1,1-dioxide]
- IC50 [1]: 6.49 µM

SMILES: CO[C@@]1(NC(=O)C(F)(F)F)C(=O)N2[C@@H](C(=O)OCc3ccccc3)C(C)(C)S(=O)(=O)[C@@H]21 [β-CF3 CONH / α-CH3 O / 2 / OBZ]
- IC50 [1]: 19.4 µM

From US4847247A, “Penicillin derivatives as anti-inflammatory and antidegenerative agents” (Merck & Co., Inc., priority 1986, dated 1989)
